Laboratory results taken from patent US12448369B2 (Edgewise Therapeutics, Inc., priority 2023, dated 2025).

What was measured:
[1] = system: Rabbit Psoas myofibrils (skeletal myosin ATPase); test: Myofibril ATPase assay, rabbit psoas (skeletal) myofibrils; format: biochemical
Procedure: (§1) Example 1. Myofibril ATPase Assay
(§2) Myofibril ATPase assays are known in the art to be useful in evaluating small molecules for the treatment of HCM and other cardiac indications. Myosin ATPase activity is assessed by using a coupled reaction system, in which ADP generated by the myosin ATPase function is coupled to the disappearance of NADH through the pyruvate kinase/lactate dehydrogenase (PK-LDH) system. ATPase activity produces ADP, which is used as a substrate for PK to produce pyruvate and regenerate ATP. The pyruvate is then used as a substrate by LDH to oxidize NADH to NAD+. The rate of the reaction is monitored through the time-dependent disappearance of NADH using absorbance at 340 nm, which, when the couple system is in stoichiometric excess, is directly correlated to the ATPase activity of the myosin. Inhibition of ATPase activity by the assayed compounds is indicated by a reduced rate of NADH loss, relative to vehicle-treated controls, over the experimental time window. Activation of ATPase activity by the assayed compounds is indicated by an increased rate of NADH loss, relative to vehicle-treated controls, over the experimental time window. Rabbit Psoas, Porcine atria, and Porcine ventricle are the primary sources of myofibril material.
(§3) Materials: The following stock solutions and reagents were used in the Myofibril ATPase Assay:
(§4) Stock Solutions of pCa buffer. Combine PIPES, CaCl2, and EGTA solutions with water. Adjust pH to 7.0 and bring final volume to 100 mL.
(§5) Buffer A & Buffer B. Prepare buffers A and B according to the table below.
(§6) Myofibril ATPase Assay Procedure: BSA, ATP, NADH, PEP, and DTT solutions were thawed at room temperature, then transferred to ice. Pellet-frozen myofibrils were transferred with approximately twice the required volume into a sufficiently large tube and capped. Myofibrils were thawed by rolling in a water bath for approximately 15 min at room temperature and cooled on ice. Buffers A and B were prepared by adjusting volumes as necessary for required number of wells and stored on ice. 0.5 μL of the compounds to be assayed were added into wells. 25 μL of Buffer A was dispensed into the wells, followed by 25 μL of Buffer B. The wells were measured for absorbance at 340 nm, using a kinetic protocol in which the wells are read every 1.5-2 min for 75 min. Assay data analysis was performed using a python script that filtered the raw data to retain those points falling between a starting and ending time and between a maximum and minimum absorbance, then used the filtered time-domain 340 nm absorbance data in each well to calculate a slope via linear regression analysis in units of mAU/min. Compound slopes were normalized between 100% and 0% activity, where 100% represented the slope of wells containing only compound vehicle, and fit to a 4-parameter logistic model. In addition to the fit parameters, the EC25% values were calculated, relative to the 100% normalized value. Additionally, the Y125 values were calculated for compounds that increased myosin ATP-ase activity. Fit parameters, calculated effective concentrations, filtered raw data, and calculated slopes were exported, in addition to compound-specific graphs of normalized ATPase activity versus concentration in μM. Each value reported in Table 5, Table 6, and Table 7 is either a Y75 value or a Y125 value. Values without a double cross sign, ‡, are Y75 values, which reflect the concentration required to reduce myosin ATP-ase activity by 25% (e.g., Y-axis activity value is 75% of initial value), relative to myosin ATP-ase activity in the absence of exogenous compound.
Skeletal Myofibril Isolation:
(§7) Myofibrils from various animals and tissue types were acquired from a variety of sources: rabbit psoas muscle was purchased from Pel-Freez Biologicals (Rogers, AR) and porcine cardiac muscle was purchased from Exemplar Genetics. All myofibrils were prepared using a method based upon those described in Herrmann et al. (1993) and summarized here. […]

[2] = system: Porcine atria myofibrils (atrial myosin ATPase); test: Myofibril ATPase assay, porcine atria myofibrils; format: biochemical
Procedure: as §1, §2, §3, §4, §5, §6, §7

[3] = target: T1, Porcine ventricle myofibrils (ventricular myosin ATPase) (Sus scrofa, UniProt P79293); test: Myofibril ATPase assay, porcine ventricle myofibrils; format: biochemical, porcine (Yucatan minipigs)
T1 construct: Myofibrils from porcine cardiac muscle was isolated from the left ventricle of Yucatan minipigs; tissue Exemplar Genetics; host or cells: left ventricle of Yucatan minipigs, myofibrils prepared in house
Procedure: as §1, §2, §3, §4, §5, §6
Cardiac Myofibril Isolation:
Myofibrils from porcine cardiac muscle was isolated from the left ventricle of Yucatan minipigs. Myofibrils were prepared using a method based upon those described in Herrmann et al. (1993) and summarized here. […]

[4] = rabbit psoas myofibrils, Y75 value
[5] = porcine atria myofibrils, Y75 value (75% activity relative to no compound)
[6] = porcine ventricle myofibrils, Y75 value
[7] = Y75 value (no ‡ mark), rabbit psoas myofibrils
[8] = Y75 value (no ‡ mark), porcine atria myofibrils
[9] = Y75 value (no ‡ mark), porcine ventricle myofibrils

T1 sequence (P79293 whole entry): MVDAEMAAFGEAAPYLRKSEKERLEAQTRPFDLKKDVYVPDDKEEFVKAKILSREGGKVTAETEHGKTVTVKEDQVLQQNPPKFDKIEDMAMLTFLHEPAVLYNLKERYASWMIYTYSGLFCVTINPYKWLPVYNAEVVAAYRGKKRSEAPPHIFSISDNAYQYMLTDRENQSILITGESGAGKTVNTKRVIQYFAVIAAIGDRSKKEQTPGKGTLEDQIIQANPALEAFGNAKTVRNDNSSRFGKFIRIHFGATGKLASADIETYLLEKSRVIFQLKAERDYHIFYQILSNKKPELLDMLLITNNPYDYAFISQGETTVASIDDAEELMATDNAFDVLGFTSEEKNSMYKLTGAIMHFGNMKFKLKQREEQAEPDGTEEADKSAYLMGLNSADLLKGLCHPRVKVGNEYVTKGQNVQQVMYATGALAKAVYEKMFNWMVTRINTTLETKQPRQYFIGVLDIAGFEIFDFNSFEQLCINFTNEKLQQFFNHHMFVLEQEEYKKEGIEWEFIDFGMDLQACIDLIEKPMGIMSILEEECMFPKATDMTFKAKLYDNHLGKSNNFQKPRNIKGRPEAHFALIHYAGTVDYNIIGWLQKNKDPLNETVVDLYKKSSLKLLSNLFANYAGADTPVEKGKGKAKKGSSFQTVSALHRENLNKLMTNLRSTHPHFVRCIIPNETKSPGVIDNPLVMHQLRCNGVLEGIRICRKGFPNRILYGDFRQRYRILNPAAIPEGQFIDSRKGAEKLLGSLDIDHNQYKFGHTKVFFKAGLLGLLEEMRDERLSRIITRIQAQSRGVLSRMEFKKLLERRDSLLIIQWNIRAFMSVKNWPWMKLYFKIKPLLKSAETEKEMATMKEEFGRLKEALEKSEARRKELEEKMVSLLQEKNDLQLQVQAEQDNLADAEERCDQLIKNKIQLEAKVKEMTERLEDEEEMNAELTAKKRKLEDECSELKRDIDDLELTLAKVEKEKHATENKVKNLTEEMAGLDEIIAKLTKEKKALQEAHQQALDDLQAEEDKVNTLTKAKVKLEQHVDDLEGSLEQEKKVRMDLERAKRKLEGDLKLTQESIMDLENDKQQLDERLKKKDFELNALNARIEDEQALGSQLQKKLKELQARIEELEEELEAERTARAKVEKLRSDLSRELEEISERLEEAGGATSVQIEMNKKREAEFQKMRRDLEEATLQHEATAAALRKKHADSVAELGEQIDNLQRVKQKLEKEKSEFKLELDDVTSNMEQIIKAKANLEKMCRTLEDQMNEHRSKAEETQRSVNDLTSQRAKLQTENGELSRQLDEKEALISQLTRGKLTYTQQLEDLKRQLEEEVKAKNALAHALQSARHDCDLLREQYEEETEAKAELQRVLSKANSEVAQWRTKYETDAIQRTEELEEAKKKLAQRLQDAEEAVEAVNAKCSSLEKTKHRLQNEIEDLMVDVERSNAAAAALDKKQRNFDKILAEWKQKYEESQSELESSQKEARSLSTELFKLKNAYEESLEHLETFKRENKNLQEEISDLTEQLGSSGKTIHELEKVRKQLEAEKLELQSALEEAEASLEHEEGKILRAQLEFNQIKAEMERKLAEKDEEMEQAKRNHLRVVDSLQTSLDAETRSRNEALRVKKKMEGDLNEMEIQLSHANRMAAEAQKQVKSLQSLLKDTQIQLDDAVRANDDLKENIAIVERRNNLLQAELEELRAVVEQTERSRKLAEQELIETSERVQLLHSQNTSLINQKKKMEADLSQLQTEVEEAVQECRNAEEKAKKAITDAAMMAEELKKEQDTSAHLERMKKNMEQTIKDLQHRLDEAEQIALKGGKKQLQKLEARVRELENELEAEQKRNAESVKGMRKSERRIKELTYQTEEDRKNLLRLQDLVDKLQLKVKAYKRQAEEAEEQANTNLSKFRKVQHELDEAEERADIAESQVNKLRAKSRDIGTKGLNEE

## CC(NC(=O)Cc1cc2c(F)c(F)ccc2[nH]c1=O)c1nc(C#N)cs1 (single isomer, unassigned) [compound 4009, N-(1-(4-cyanothiazol-2-yl)ethyl)-2-(5,6-difluoro-2-oxo-1,2-dihydroquinolin-3-yl)acetamide]
[1]; Y75 value: concentration required to reduce myosin ATP-ase activity by 25%, Rabbit Psoas Prep pCa 25 GEOM_MEAN
  Skeletal EC25: 1.49 µM
[2]; Y75 value: concentration required to reduce myosin ATP-ase activity by 25%, Porcine Atria Prep pCa 25 GEOM_MEAN
  Atrial EC25: 2.28 µM
[3]; Y75 value: concentration required to reduce myosin ATP-ase activity by 25%, Porcine Ventricle Prep pCa 25 GEOM_MEAN
  Ventricular EC25: 0.91 µM

## Cc1nncc2[nH]c(=O)c(CC(=O)N[C@H](C)c3ccc(F)cc3F)cc12 [compound 499]
[1]; [4]
  Skeletal EC25: 100 µM
[2]; [5]
  Atrial EC25: 100 µM
[3]; [6]
  Ventricular EC25: 100 µM

## C[C@H](NC(=O)Cc1c(C(F)(F)F)c2cnccc2[nH]c1=O)c1ccc(F)cc1F [compound 447]
[1]; [4]
  Skeletal EC25: 0.05 µM
[2]; [5]
  Atrial EC25: 0.25 µM
[3]; [6]
  Ventricular EC25: 10.16 µM

## Cc1c(CC(=O)N[C@H](C)c2ccc(C#N)nn2)c(=O)[nH]c2cc(F)c(F)cc12 [compound 1042]
[1]; [7]
  Skeletal EC25: 1.88 µM
[2]; [8]
  Atrial EC25: 0.89 µM
[3]; [9]
  Ventricular EC25: 24 µM

## CCOc1nccc2[nH]c(=O)c(CC(=O)N[C@@H](C)c3ccc(F)cc3F)c(C)c12 [compound 381]
[1]; [4]
  Skeletal EC25: 0.01 µM
[2]; [5]
  Atrial EC25: 0.10 µM
[3]; [6]
  Ventricular EC25: 0.31 µM

## Cc1c(C(F)(F)C(=O)N[C@H](C)c2cnc(C#N)cn2)c(=O)[nH]c2ccc(F)cc12 (single isomer, unassigned) [compound 2563]
[1]; [7]
  Skeletal EC25: 0.12 µM
[2]; [8]
  Atrial EC25: 0.15 µM
[3]; [9]
  Ventricular EC25: 0.54 µM

## Cc1nc([C@@H](C)NC(=O)Cc2c(C)c3c(C)c(F)ccc3[nH]c2=O)ncc1C#N (single isomer, unassigned) [compound 4837]
[1]; [7]
  Skeletal EC25: 0.21 µM
[2]; [8]
  Atrial EC25: 1.90 µM
[3]; [9]
  Ventricular EC25: 3.67 µM

## Cc1nccc2[nH]c(=O)c(CC(=O)N[C@H](C)c3ncc(C#N)cn3)c(C)c12 [compound 482]
[1]; [4]
  Skeletal EC25: 100.00 µM
[2]; [5]
  Atrial EC25: 28.27 µM
[3]; [6]
  Ventricular EC25: 63.17 µM

## Cc1c(CC(=O)N[C@H](C)c2ccc(C#N)nn2)c(=O)[nH]c2ccc(F)c(C3CC3)c12 (single isomer, unassigned) [compound 2057]
[1]; [7]
  Skeletal EC25: 0.27 µM
[2]; [8]
  Atrial EC25: 0.65 µM
[3]; [9]
  Ventricular EC25: 0.94 µM

## Cc1c([C@@H](C)C(=O)N[C@@H](C)c2ccc(F)cc2F)c(=O)[nH]c2ccnc(Cl)c12 (single isomer, unassigned) [compound 365]
[1]; [4]
  Skeletal EC25: 0.03 µM
[2]; [5]
  Atrial EC25: 0.18 µM
[3]; [6]
  Ventricular EC25: 0.92 µM

## Cc1c(CC(=O)N[C@H](C)c2ccc(C#N)cc2F)c(=O)[nH]c2ccc(C(F)(F)F)nc12 (single isomer, unassigned) [compound 208]
[1]; [4]
  Skeletal EC25: 0.15 µM
[2]; [5]
  Atrial EC25: 2.16 µM
[3]; [6]
  Ventricular EC25: 9.68 µM

## Cc1nccc2[nH]c(=O)c(CC(=O)N[C@@H](C)c3ccc(S(C)(=O)=O)cc3F)c(C)c12 (single isomer, unassigned) [compound 207]
[1]; [4]
  Skeletal EC25: 1.32 µM
[2]; [5]
  Atrial EC25: 100.00 µM
[3]; [6]
  Ventricular EC25: 100.00 µM

## C[C@H](NC(=O)Cc1cc2cc(C3CC3)ccc2[nH]c1=O)c1ccc(F)cc1F [compound 117]
[1]; [7]
  Skeletal EC25: 6.32 µM
[2]; [8]
  Atrial EC25: 100.00 µM
[3]; [9]
  Ventricular EC25: 100.00 µM

## N#Cc1cnc2c(n1)CC[C@H]2NC(=O)Cc1cc2cc(F)c(F)cc2[nH]c1=O [compound 1082]
[1]; [7]
  Skeletal EC25: 100.00 µM
[2]; [8]
  Atrial EC25: 100.00 µM
[3]; [9]
  Ventricular EC25: 100.00 µM

## C[C@@H](NC(=O)C(F)(F)c1cc2cc(F)ccc2[nH]c1=O)c1cccc(C#N)n1 (single isomer, unassigned) [compound 2581]
[1]; [7]
  Skeletal EC25: 100.00 µM
[2]; [8]
  Atrial EC25: 100.00 µM
[3]; [9]
  Ventricular EC25: 100.00 µM

## COc1ccc([C@H](C)NC(=O)Cc2c(C)c3c(C)nccc3[nH]c2=O)cn1 (single isomer, unassigned) [compound 291]
[1]; [4]
  Skeletal EC25: 100.00 µM
[2]; [5]
  Atrial EC25: 100.00 µM
[3]; [6]
  Ventricular EC25: 100.00 µM

## Cc1nc(C#N)ncc1[C@H](C)NC(=O)Cc1c(C)c2c(C)nccc2[nH]c1=O [compound 465]
[1]; [4]
  Skeletal EC25: 47.72 µM
[2]; [5]
  Atrial EC25: 100.00 µM
[3]; [6]
  Ventricular EC25: 100.00 µM

## Cc1c(CC(=O)N[C@@H](C)c2ccc(C#N)cc2F)c(=O)[nH]c2cnnc(C#N)c12 [compound 172]
[1]; [4]
  Skeletal EC25: 0.04 µM
[2]; [5]
  Atrial EC25: 0.10 µM
[3]; [6]
  Ventricular EC25: 3.78 µM

## Cc1c(CC(=O)N[C@@H](C)c2ccc(C#N)cn2)c(=O)[nH]c2ccnc(C#N)c12 [compound 158]
[1]; [4]
  Skeletal EC25: 0.06 µM
[2]; [5]
  Atrial EC25: 0.43 µM
[3]; [6]
  Ventricular EC25: 1.80 µM

## Cc1c(C(F)(F)C(=O)N[C@H](C)c2cnc(C#N)cn2)c(=O)[nH]c2ccc(F)cc12 (single isomer, unassigned) [compound 4827]
[1]; [7]
  Skeletal EC25: 0.08 µM
[2]; [8]
  Atrial EC25: 0.23 µM
[3]; [9]
  Ventricular EC25: 0.71 µM

## Cc1c(C(F)(F)C(=O)N[C@@H](CO)c2ncc(C#N)cc2F)c(=O)[nH]c2ccnc(C#N)c12 (single isomer, unassigned) [compound 3504]
[1]; [4]
  Skeletal EC25: 1.04 µM
[2]; [5]
  Atrial EC25: 0.77 µM
[3]; [6]
  Ventricular EC25: 4.90 µM

## CCCOc1nccc2[nH]c(=O)c(CC(=O)N[C@@H](C)c3ccc(F)cc3F)c(C)c12 [compound 384]
[1]; [4]
  Skeletal EC25: 0.04 µM
[2]; [5]
  Atrial EC25: 0.21 µM
[3]; [6]
  Ventricular EC25: 11.67 µM

## Cc1c(C(F)(F)C(=O)N[C@@H](C)c2cnc(C#N)cn2)c(=O)[nH]c2ccc(F)cc12 (single isomer, unassigned) [compound 4828]
[1]; [7]
  Skeletal EC25: 0.24 µM
[2]; [8]
  Atrial EC25: 0.30 µM
[3]; [9]
  Ventricular EC25: 1.13 µM

## Cc1c(CC(=O)N[C@@H](C)c2ccc(C#N)cc2F)c(=O)[nH]c2ccc(F)c(C3CC3)c12 [compound 70]
[1]; [7]
  Skeletal EC25: 0.03 µM
[2]; [8]
  Atrial EC25: 100.00 µM
[3]; [9]
  Ventricular EC25: 100.00 µM

## Cc1nccc2[nH]c(=O)c(CC(=O)N[C@H]3COc4cccnc43)c(C)c12 (single isomer, unassigned) [compound 252]
[1]; [4]
  Skeletal EC25: 100.00 µM
[2]; [5]
  Atrial EC25: 100.00 µM
[3]; [6]
  Ventricular EC25: 100.00 µM
